According to patent US20220226299A1 (NIPPON CHEMIPHAR CO., LTD., priority 2019, published 2022):

target: T1, human Cav3.2 channels (Homo sapiens, UniProt O95180); assay: T-type calcium blocking action: intracellular calcium (Fluo-4 AM fluorescence) in HEK293 cells steadily expressing human Cav3.2 channels; format: cell-based; details: HEK293 cells expressing human Cav3.2; KCl-stimulated calcium influx, Fluo-4 fluorescence; Tables 1 to 3
T1 construct: human Cav3.2 channel ORF (Open Reading Frame) gene; expressed in transfected cells; host or cells: HEK293 cells (ATCC No. CRL-1573), pcDNA3.1(+) plasmid
T1 sequence (O95180 whole entry): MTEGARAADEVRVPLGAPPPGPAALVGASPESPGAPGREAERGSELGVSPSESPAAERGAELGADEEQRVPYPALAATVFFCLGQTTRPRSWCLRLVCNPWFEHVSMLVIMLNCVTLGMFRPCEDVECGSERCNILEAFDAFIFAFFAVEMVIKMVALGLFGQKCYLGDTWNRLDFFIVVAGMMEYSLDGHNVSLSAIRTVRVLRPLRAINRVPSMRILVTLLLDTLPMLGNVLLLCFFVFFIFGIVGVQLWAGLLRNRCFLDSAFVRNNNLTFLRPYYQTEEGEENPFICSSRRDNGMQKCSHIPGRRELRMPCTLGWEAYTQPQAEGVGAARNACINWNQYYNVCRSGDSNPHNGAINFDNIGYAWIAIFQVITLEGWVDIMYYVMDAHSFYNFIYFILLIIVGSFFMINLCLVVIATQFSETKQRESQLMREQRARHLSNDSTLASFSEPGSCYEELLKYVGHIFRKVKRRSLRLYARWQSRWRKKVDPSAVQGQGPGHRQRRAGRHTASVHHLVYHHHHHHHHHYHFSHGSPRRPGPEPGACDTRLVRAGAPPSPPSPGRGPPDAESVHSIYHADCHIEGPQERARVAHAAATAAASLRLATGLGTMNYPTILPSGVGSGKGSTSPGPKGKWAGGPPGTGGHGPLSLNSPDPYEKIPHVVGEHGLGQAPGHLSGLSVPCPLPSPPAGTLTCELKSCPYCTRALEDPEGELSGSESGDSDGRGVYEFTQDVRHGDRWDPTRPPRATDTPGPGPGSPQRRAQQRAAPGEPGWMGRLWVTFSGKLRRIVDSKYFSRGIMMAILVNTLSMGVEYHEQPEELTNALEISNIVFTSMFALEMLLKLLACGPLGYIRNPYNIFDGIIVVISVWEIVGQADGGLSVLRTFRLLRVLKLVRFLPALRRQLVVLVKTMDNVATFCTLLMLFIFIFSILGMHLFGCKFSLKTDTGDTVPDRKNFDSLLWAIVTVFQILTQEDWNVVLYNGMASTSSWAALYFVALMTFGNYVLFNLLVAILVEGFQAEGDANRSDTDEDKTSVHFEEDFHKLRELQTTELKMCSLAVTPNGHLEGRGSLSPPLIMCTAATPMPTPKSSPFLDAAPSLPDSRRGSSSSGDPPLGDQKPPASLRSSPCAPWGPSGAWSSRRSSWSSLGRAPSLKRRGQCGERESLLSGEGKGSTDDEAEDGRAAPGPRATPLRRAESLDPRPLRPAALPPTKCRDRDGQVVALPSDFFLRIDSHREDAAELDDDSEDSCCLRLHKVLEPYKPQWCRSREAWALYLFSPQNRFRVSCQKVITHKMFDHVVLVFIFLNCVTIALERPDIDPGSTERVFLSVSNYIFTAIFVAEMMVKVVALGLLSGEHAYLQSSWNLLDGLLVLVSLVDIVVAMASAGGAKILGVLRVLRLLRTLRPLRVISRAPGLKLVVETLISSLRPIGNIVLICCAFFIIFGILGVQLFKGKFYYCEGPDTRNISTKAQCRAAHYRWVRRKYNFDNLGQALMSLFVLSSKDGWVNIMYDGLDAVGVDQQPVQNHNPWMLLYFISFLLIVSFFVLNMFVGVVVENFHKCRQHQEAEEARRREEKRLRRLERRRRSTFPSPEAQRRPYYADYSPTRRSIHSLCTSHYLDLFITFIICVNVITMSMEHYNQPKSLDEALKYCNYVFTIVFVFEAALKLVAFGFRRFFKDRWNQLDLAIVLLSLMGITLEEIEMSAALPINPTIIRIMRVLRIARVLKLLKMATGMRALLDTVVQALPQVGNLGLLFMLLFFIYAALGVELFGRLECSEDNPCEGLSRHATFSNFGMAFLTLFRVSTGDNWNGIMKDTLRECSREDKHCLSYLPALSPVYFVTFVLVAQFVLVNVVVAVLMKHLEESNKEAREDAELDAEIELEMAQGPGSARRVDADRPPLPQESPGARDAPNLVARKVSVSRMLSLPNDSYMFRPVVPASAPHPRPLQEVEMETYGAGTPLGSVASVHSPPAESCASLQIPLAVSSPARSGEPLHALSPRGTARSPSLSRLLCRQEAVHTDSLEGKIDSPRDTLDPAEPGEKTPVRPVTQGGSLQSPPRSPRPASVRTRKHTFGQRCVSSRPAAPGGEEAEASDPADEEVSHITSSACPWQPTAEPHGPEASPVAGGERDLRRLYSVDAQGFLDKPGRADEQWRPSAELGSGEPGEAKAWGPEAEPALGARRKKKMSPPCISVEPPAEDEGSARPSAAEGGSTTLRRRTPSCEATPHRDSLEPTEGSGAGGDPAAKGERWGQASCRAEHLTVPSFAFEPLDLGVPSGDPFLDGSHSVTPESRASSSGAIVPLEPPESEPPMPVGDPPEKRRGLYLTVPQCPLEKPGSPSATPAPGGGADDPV
Description: T-Type Calcium Blocking Action
(1) Construction of Cells Steadily Expressing Human Cav3.2 Channels
A sequence obtained by adding HindIII site and a kozak sequence (GCCACC) to the 5′-side of human Cav3.2 channel ORF (Open Reading Frame) gene and adding a KpnI site to the 3′-side of the gene, was incorporated into pcDNA3.1(+) (Thermo Fisher Scientific, #V790-20), and the plasmid was introduced into HEK293 cells (ATCC No. CRL-1573) according to the protocol of FuGENE (registered trademark) HD Transfection Reagent (Promega, #E2311).
(2) Method for Measuring Intracellular Calcium Concentration
The cells steadily expressing human Cav3.2 channels produced by testing method (1) were seeded on a 96-well plate (Dulbecco's modified Eagle medium (DMEM) medium containing 10% fetal bovine serum (FBS) was used as a medium). The cells were seeded and cultured for 48 hours under conditions of 37° C. and 5% CO2. Thereafter, the cells were washed with buffer A in order to remove the medium. Each well was treated with 80 μL of a fluorescent dye solution produced by mixing 22 μg of a fluorescent calcium indicator, Fluo-4 AM (Dojindo Laboratories, #F311), 20 μL of DMSO, 1 μL of 10% Pluronic F-127 (Thermo Fisher Scientific, #P6866), and 4 mL of buffer A. The cells were allowed to stand for 45 minutes at room temperature under light-shielded conditions, and then washed with buffer B in order to completely replace the solution. 70 μL of DMSO having the same concentration as that of a test compound as a negative control and 70 μL of a mixture containing 1 μM of a known blocker RQ-00311651 and the test compound as a positive control were each added to each well in a form of being contained in the buffer B. The test compound was dissolved in 100% DMSO and added at a final concentration of 0.1%. Then, the cells were further allowed to stand at room temperature under light-shielded conditions for 15 minutes and placed in a microplate reader EnVision (PerkinElmer). Background fluorescence was measured in each well, and then a 5 μg/mL grammicidin solution was added to buffer B at 10 μL/well. After 90 seconds, baseline fluorescence was measured. Thereafter, 83.8 mM KCl was added to buffer B at 20 μL/well, and an increase in fluorescence caused by calcium influx generated by the stimulus was measured for 10 seconds. A blocking percentage was calculated from a maximum fluorescence increase value from a baseline, a logarithmic value of a compound concentration and blockery activity were plotted, and thereby an IC50 value was calculated. In the measurement, fluorescence at 510 nm that was emitted when the cells were irradiated with excitation light at 485 nm was observed.
Buffer A: 140 mM NaCl, 5 mM KCl, 1 mM MgCl2, 0.5 mM CaCl2, 10 mM Glucose, 10 mM HEPES, pH 7.3
Buffer B: 137.9 mM Choline-Cl, 4.1 mM KCl, 1 mM MgCl2, 0.5 mM CaCl2, 10 mM Glucose, 10 mM HEPES, pH 7.3

Row | IC50 [nM] | Compound
1 | 110 | O=C(N[C@@H]1CCN(c2ccc(C(F)(F)F)cc2)C1)C1CC1c1nc2ccccc2[nH]1 (single isomer, unassigned) [Example 52]
2 | 1000 | O=C(N[C@H]1CCN(c2ccc(C(F)(F)F)cc2)C1)C1CC1c1nc2ccccc2[nH]1 (single isomer, unassigned) [Example 53]
3 | 190 | O=C(N[C@@H]1CCCN(c2ccc(C(F)(F)F)nc2)C1)C1CC1c1nc2ccccc2[nH]1 (single isomer, unassigned) [Example 63A]
4 | > 10000 | O=C(N[C@@H]1CCCN(c2ccc(C(F)(F)F)nc2)C1)C1CC1c1nc2ccccc2[nH]1 (single isomer, unassigned) [Example 63B]
5 | 69 | O=C(N[C@@H]1CCN(c2ccc(C(F)(F)F)nc2)C1)C1CC1c1c[nH]c2ccccc12 (single isomer, unassigned) [Example 66]
6 | 90 | O=C(N[C@@H]1CCN(c2cncc(C(F)(F)F)c2)C1)C1CC1c1cc(Cl)cc(Cl)c1 (single isomer, unassigned) [Example 99A]
7 | 480 | O=C(N[C@@H]1CCN(c2cncc(C(F)(F)F)c2)C1)C1CC1c1cc(Cl)cc(Cl)c1 (single isomer, unassigned) [Example 99B]
8 | 9.3 | O=C(N[C@@H]1CCN(c2cncc(C(F)(F)F)c2)C1)C1CC1c1ccc(Br)cc1 (single isomer, unassigned) [Example 100A]
9 | 460 | O=C(N[C@@H]1CCN(c2cncc(C(F)(F)F)c2)C1)C1CC1c1ccc(Br)cc1 (single isomer, unassigned) [Example 100B]
10 | 11 | O=C(N[C@@H]1CCN(c2cncc(C(F)(F)F)c2)C1)C1CC1c1ccc(C2CC2)cc1 (single isomer, unassigned) [Example 106A]
11 | 400 | O=C(N[C@@H]1CCN(c2cncc(C(F)(F)F)c2)C1)C1CC1c1ccc(C2CC2)cc1 (single isomer, unassigned) [Example 106B]
12 | 4.7 | O=C(N[C@@H]1CCN(c2cncc(C(F)(F)F)c2)C1)C1CC1c1ccc(F)c(F)c1 (single isomer, unassigned) [Example 107A]
13 | 560 | O=C(N[C@@H]1CCN(c2cncc(C(F)(F)F)c2)C1)C1CC1c1ccc(F)c(F)c1 (single isomer, unassigned) [Example 107B]
14 | 5.7 | O=C(N[C@@H]1CCN(c2cncc(C(F)(F)F)c2)C1)C1CC1c1ccc(Cl)cc1 (single isomer, unassigned) [Example 108A]
15 | 200 | O=C(N[C@@H]1CCN(c2cncc(C(F)(F)F)c2)C1)C1CC1c1ccc(Cl)cc1 (single isomer, unassigned) [Example 108B]
16 | 100 | NC(C(=O)N[C@@H]1CCN(c2cncc(C(F)(F)F)c2)C1)c1ccc(C2CC2)cc1 (single isomer, unassigned) [Example 137A]
17 | 820 | NC(C(=O)N[C@@H]1CCN(c2cncc(C(F)(F)F)c2)C1)c1ccc(C2CC2)cc1 (single isomer, unassigned) [Example 137B]
18 | 30 | O=C(Cc1ccc(N2CC3CC2CO3)cc1)N[C@@H]1CCN(c2cncc(C(F)(F)F)c2)C1 (single isomer, unassigned) [Example 165]

Row | IC50 [nM] | Compound
19 | 220 | O=C(Cc1ccc(N2CC3CC2CO3)cc1)N[C@@H]1CCN(c2ccc(C(F)(F)F)nc2)C1 (single isomer, unassigned) [Example 166]
20 | 13 | O=C(Cc1ccc(C2CC2)cc1)N[C@@H]1CCN(c2cncc(C(F)(F)F)c2)C1 [Example 1, (R)-2-(4-cyclopropylphenyl)-N-(1-(5-(trifluoromethyl)pyridin-3-yl)pyrrolidin-3-yl)acetamide]
21 | 1300 | O=C(Cc1ccc(C(F)(F)F)cn1)N[C@@H]1CCN(c2cncc(C(F)(F)F)c2)C1 [Example 2, (R)-2-(5-(trifluoromethyl)pyridin-2-yl)-N-(1-(5-(trifluoromethyl)pyridin-3-yl)pyrrolidin-3-yl)acetamide]
22 | 850 | CC(C)c1ccc(CC(=O)N[C@@H]2CCN(c3cnc(C(F)(F)F)nc3)C2)cc1 [Example 3, (R)-2-(4-isopropylphenyl)-N-(1-(2-(trifluoromethyl)pyrimidin-5-yl)pyrrolidin-3-yl)acetamide]
23 | 14 | CC(C)c1ccc(CC(=O)N[C@@H]2CCN(c3cncc(C(F)(F)F)c3)C2)cc1 [Example 4, (R)-2-(4-isopropylphenyl)-N-(1-(5-(trifluoromethyl)pyridin-3-yl)pyrrolidin-3-yl)acetamide]
24 | 290 | O=C(Cc1ccc(C2CC2)cc1)N[C@H]1CN(c2cncc(C(F)(F)F)c2)C[C@@H]1O [Example 5, 2-(4-cyclopropylphenyl)-N-((3S,4S)-4-hydroxy-1-(5-(trifluoromethyl)pyridin-3-yl)pyrrolidin-3-yl)acetamide]
25 | 130 | O=C(Cc1ccc(C2CC2)cc1)N[C@H]1CN(c2cncc(C(F)(F)F)c2)CC12CC2 [Example 6, (R)-2-(4-cyclopropylphenyl)-N-(5-(5-(trifluoromethyl)pyridin-3-yl)-5-azaspiro[2.4]heptan-7-yl) acetamide]
26 | 97 | O=C(Cc1ccc(C2CC2)cc1)N[C@H]1CN(c2ccc(C(F)(F)F)nc2)CC12CC2 [Example 7, (R)-2-(4-cyclopropylphenyl)-N-(5-(6-(trifluoromethyl)pyridin-3-yl)-5-azaspiro[2.4]heptan-7-yl) acetamide]
27 | 200 | O=C(Cc1ccc(C2CC2)cc1)N[C@H]1CN(c2nc(C(F)(F)F)cs2)CC12CC2 [Example 8, (R)-2-(4-cyclopropylphenyl)-N-(5-(4-(trifluoromethyl)thiazol-2-yl)-5-azaspiro[2.4]heptan-7-yl) acetamide]
28 | 480 | C[C@H]1C[C@@H](NC(=O)Cc2ccc(C3CC3)cc2)CN1c1cncc(C(F)(F)F)c1 [Example 9, 2-(4-cyclopropylphenyl)-N-((3R,5S)-5-methyl-1-(5-(trifluoromethyl)pyridin-3-yl)pyrrolidin-3-yl)acetamide]
29 | 410 | O=C(Cc1ccc(C2CC2)cc1)N[C@]12CC1CN(c1cncc(C(F)(F)F)c1)C2 (some centres unmarked) [Example 10, 2-(4-cyclopropylphenyl)-N-(3-(5-(trifluoromethyl)pyridin-3-yl)-3-azabicyclo[3.1.0]hexan-1-yl) acetamide]
30 | 180 | O=C(Cc1ccc(C(F)(F)F)cc1)N[C@@H]1CCN(c2cncc(C(F)(F)F)n2)C1 [Example 11, (R)-2-(4-(trifluoromethyl)phenyl)-N-(1-(6-(trifluoromethyl)pyrazin-2-yl)pyrrolidin-3-yl)acetamide]
31 | 280 | N#Cc1ncc(N2CC[C@@H](NC(=O)Cc3ccc(C4CC4)cc3)C2)cc1C(F)(F)F [Example 12, (R)—N-(1-(6-cyano-5-(trifluoromethyl)pyridin-3-yl)pyrrolidin-3-yl)-2-(4-cyclopropylphenyl)acetamide]
32 | 18 | COC(=O)C1(NC(=O)Cc2ccc(C3CC3)cc2)CCN(c2cncc(C(F)(F)F)c2)C1 (centres unmarked) [Example 13, Methyl 3-(2-(4-cyclopropylphenyl)acetamido)-1-(5-(trifluoromethyl)pyridin-3-yl)pyrrolidine-3-carboxylate]
33 | 5200 | O=C(Cc1ccc(C2CC2)cc1)NC1(C(=O)O)CCN(c2cncc(C(F)(F)F)c2)C1 (centres unmarked) [Example 14, 3-(2-(4-cyclopropylphenyl)acetamido)-1-(5-(trifluoromethyl)pyridin-3-yl)pyrrolidine-3-carboxylic acid]
34 | 370 | O=C(Cc1ccc2cn[nH]c2c1)N[C@@H]1CCN(c2cncc(C(F)(F)F)c2)C1 [Example 15, (R)-2-(1H-indazol-6-yl)-N-(1-(5-(trifluoromethyl)pyridin-3-yl)pyrrolidin-3-yl)acetamide]
35 | 320 | O=C(Cc1ccc(C2CC2)cc1)N[C@@H]1CCN(c2nc(C(F)(F)F)cs2)C1 [Example 16, (R)-2-(4-cyclopropylphenyl)-N-(1-(4-(trifluoromethyl)thiazol-2-yl)pyrrolidin-3-yl)acetamide]
